Measured values reported in patent publication US20260285850A1, “SUBSTITUTED OXAZOLIDINONES AND IMIDAZOLINONES AS HERBICIDES” (FMC CORPORATION, priority 2023, published 2026).

Key:
Format in all cases: in vivo
[1] = system: palmer (palmer amaranth, palmer pigweed, Amaranthus palmeri); test: Test A postemergence application, visual injury rating 0-100
In short: (§1)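 Plants were grown in a loam soil-sand blend and treated with test chemical in a non-phytotoxic solvent mixture containing surfactant, either sprayed on soil preemergence or applied postemergence to 2-10 cm plants. After 10 days in a greenhouse, injury was scored visually against untreated controls, 0 meaning no effect and 100 complete control.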

[2] = system: blackgrass (Alopecurus myosuroides); test: as above
In short: as §1

[3] = system: oat, wild (wild oat, Avena fatua); test: as above
In short: as §1

kochia (Bassia scoparia) [4] = test: as above
In short: as §1

[5] = system: green foxtail (Setaria viridis); test: as above
In short: as §1

soybean (Glycine max) [6] = test: as above
In short: as §1

corn (Zea mays) [7] = test: as above
In short: as §1

[8] = system: barnyardgrass (Echinochloa crus-galli); test: as above
In short: as §1

[9] = system: wheat (Triticum aestivum); test: as above
In short: as §1

[10] = system: horseweed (Erigeron canadensis); test: as above; details: 62 g ai/ha, postemergence, 10 days, 0 = no effect, 100 = complete control
In short: as §1

[11] = system: ryegrass, Italian (italian ryegrass, Lolium multiflorum); test: as above
In short: as §1

[12] = system: ragweed (common ragweed, Ambrosia artemisiifolia); test: as above
In short: as §1

[13] = system: palmer (palmer amaranth, palmer pigweed, Amaranthus palmeri); test: Test A preemergence soil spray, visual injury rating 0-100; details: 62 g ai/ha, 10 days, 0 = no effect, 100 = complete control
In short: as §1

[14] = system: blackgrass (Alopecurus myosuroides); test: as above; details: 10 days
In short: as §1

[15] = system: oat, wild (wild oat, Avena fatua); test: as above; details: 10 days
In short: as §1

kochia (Bassia scoparia) [16] = test: as above; details: 10 days
In short: as §1

[17] = system: green foxtail (Setaria viridis); test: as above; details: 10 days
In short: as §1

soybean (Glycine max) [18] = test: as above; details: 10 days
In short: as §1

corn (Zea mays) [19] = test: as above; details: 10 days
In short: as §1

[20] = system: barnyardgrass (Echinochloa crus-galli); test: as above; details: 10 days
In short: as §1

[21] = system: wheat (Triticum aestivum); test: as above; details: 10 days
In short: as §1

[22] = system: ryegrass, Italian (italian ryegrass, Lolium multiflorum); test: as above; details: 10 days
In short: as §1

[23] = system: ragweed (common ragweed, Ambrosia artemisiifolia); test: as above; details: 10 days
In short: as §1

[24] = system: sedge, umbrella (small-flower umbrella sedge, Cyperus difformis); test: Test B flooded paddy test, visual plant response rating 0-100; details: 250 g ai/ha, Flood, applied to paddy water, evaluated after 13 days
In short: (§2)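 Plants were grown to the 2-leaf stage, then pots were flooded to 3 cm above the soil and compound was applied directly to the paddy water, with that depth kept throughout.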

[25] = system: barnyardgrass (Echinochloa crusgalli); test: as above; details: 250 g ai/ha, Flood, applied to paddy water, evaluated after 13 days
In short: as §2

[26] = system: ducksalad (Heteranthera limosa); test: as above; details: 250 g ai/ha, Flood, applied to paddy water, evaluated after 13 days
In short: as §2

rice (Oryza sativa) = test: as above; details: 250 g ai/ha, Flood, applied to paddy water, evaluated after 13 days
In short: as §2

[27] = 62 g ai/ha, postemergence, 10 days, 0 = no effect, 100 = complete control
[28] = Postemergence, 16 g ai/ha, greenhouse 10 days, 0 no effect, 100 complete control
[29] = 62 g ai/ha, 0 = no effect, 100 = complete control

CC(C)OC(=O)C1=CCC(NC(=O)C2(C)CN(c3cc(Cl)cc(Cl)c3)C(=O)O2)C1 (stereo not drawn) [Compound 105]
Pigweed, Palmer plant response rating (0-100) [1, 27]: 10 | Pigweed, Palmer plant response rating (0 to 100 scale) [1, 28]: 0 | Blackgrass plant response rating (0-100) [2, 27]: 10 | Blackgrass plant response rating (0 to 100 scale) [2, 28]: 0 | Oat, Wild plant response rating (0-100) [3, 27]: 0 | Oat, Wild plant response rating (0 to 100 scale) [3, 28]: 0 | Kochia plant response rating (0-100) (kochia (Bassia scoparia) [4]; [27]): 0 | Kochia plant response rating (0 to 100 scale) (kochia (Bassia scoparia) [4]; [28]): 0 | Foxtail, Green plant response rating (0-100) [5, 27]: 0 | Foxtail, Green plant response rating (0 to 100 scale) [5, 28]: 0 | Soybean plant response rating (0-100) (soybean (Glycine max) [6]; [27]): 0 | Soybean plant response rating (0 to 100 scale) (soybean (Glycine max) [6]; [28]): 0 | Corn plant response rating (0-100) (corn (Zea mays) [7]; [27]): 10 | Corn plant response rating (0 to 100 scale) (corn (Zea mays) [7]; [28]): 0 | Barnyardgrass plant response rating (0-100) [8, 27]: 30 | Barnyardgrass plant response rating (0 to 100 scale) [8, 28]: 0 | Wheat plant response rating (0-100) [9, 27]: 0 | Wheat plant response rating (0 to 100 scale) [9, 28]: 0 | Horseweed plant response rating (0-100) [10]: 20 | Ryegrass, Italian plant response rating (0-100) [11, 27]: 0 | Ryegrass, Italian plant response rating (0 to 100 scale) [11, 28]: 0 | Ragweed plant response rating (0-100) [12, 27]: 0 | Ragweed plant response rating (0 to 100 scale) [12, 28]: 0 | Pigweed, Palmer plant response rating (0-100) [13]: 10 | Blackgrass plant response rating ([14]; 16 g ai/ha, 0 to 100 scale): 0 | Blackgrass plant response rating (0-100) [14, 29]: 0 | Oat, Wild plant response rating ([15]; 16 g ai/ha, 0 to 100 scale): 0 | Oat, Wild plant response rating (0-100) [15, 29]: 0 | Kochia plant response rating (kochia (Bassia scoparia) [16]; 16 g ai/ha, 0 to 100 scale): 0 | Kochia plant response rating (0-100) (kochia (Bassia scoparia) [16]; [29]): 0 | Foxtail, Green plant response rating ([17]; 16 g ai/ha, 0 to 100 scale): 0 | Foxtail, Green plant response rating (0-100) [17, 29]: 0 | Soybean plant response rating (soybean (Glycine max) [18]; 16 g ai/ha, 0 to 100 scale): 0 | Soybean plant response rating (0-100) (soybean (Glycine max) [18]; [29]): 0 | Corn plant response rating (corn (Zea mays) [19]; 16 g ai/ha, 0 to 100 scale): 0 | Corn plant response rating (0-100) (corn (Zea mays) [19]; [29]): 0 | Barnyardgrass plant response rating ([20]; 16 g ai/ha, 0 to 100 scale): 0 | Barnyardgrass plant response rating (0-100) [20, 29]: 0 | Wheat plant response rating ([21]; 16 g ai/ha, 0 to 100 scale): 0 | Wheat plant response rating (0-100) [21, 29]: 0 | Ryegrass, Italian plant response rating ([22]; 16 g ai/ha, 0 to 100 scale): 0 | Ryegrass, Italian plant response rating (0-100) [22, 29]: 0 | Ragweed plant response rating ([23]; 16 g ai/ha, 0 to 100 scale): 0 | Ragweed plant response rating (0-100) [23, 29]: 0 | Plant response rating, Sedge, Umbrella (0 to 100 scale, 0 is no effect and 100 is complete control) [24]: 0 | Plant response rating, Barnyardgrass (0 to 100 scale, 0 is no effect and 100 is complete control) [25]: 0 | Plant response rating, Ducksalad (0 to 100 scale, 0 is no effect and 100 is complete control) [26]: 0 | Plant response rating, Rice (0 to 100 scale, 0 is no effect and 100 is complete control) (rice (Oryza sativa)): 0
